Measured values published in EP4555995B1, “COSMETIC USE OF A CYCLOPROPENE FATTY ACID FOR INHIBITING SCD ACTIVITY” (Laboratoires d'Anjou, priority 2023, dated 2025).
Several values for one entry are separate records, joined by “and”; a condition that tells them apart may be missing. Equal values may be shown once.

Assays:
[1] = system: cellules de mélanome murin B16 stimulées par le NDP-MSH; experiment: Melanin synthesis in B16 melanoma cells stimulated by NDP-MSH (total melanin content, absorbance at 405 nm); type: cell-based; settings: for Teneur en mélanine: NDP-MSH 0,1 µM, 72 h, percent of stimulated control, individual replicates
Excerpt: Dans la présente étude, l'effet blanchissant potentiel de l'acide sterculique a été évalué sur la synthèse de mélanine dans les cellules de mélanome murin B16 stimulées par un analogue stable de l'α-MSH, le NDP-MSH ([Nle4, D-Phe7]-α-Melanocyte Stimulating Hormone).
Le modèle de mélanocyte B16 constitue un modèle approprié pour la recherche d'effets inhibiteurs sur la production de mélanine car il est très réactif (par exemple à une stimulation NDP-MSH), ce qui entraîne une forte modulation de la production de mélanine entre les conditions basales et les conditions stimulées. Cette forte production de mélanine dans des conditions stimulées permet d'identifier les composés présentant des propriétés blanchissantes.
(§1) • Modèle biologique : • Type cellulaire : Lignée cellulaire de mélanome murin B16 (= mélanocytes B16) • Conditions de culture : 37°C, 5% CO2 • Milieu de culture : DMEM sans rouge de phénol optimisé pour l'essai, complété par du sérum de veau fœtal à 10%. • Composé testé : acide sterculique 50, 100 et 200 µM (dans 0.066% ethanol) • Essai préliminaire de cytotoxicité • Type de cellule : Cellules de mélanome murin B16 en milieu de culture • Durée d'incubation : 72 heures • Paramètres d'évaluation : Essai de réduction WST-8 et observations morphologiques à l'aide d'un microscope. Après traitement, les cellules sont incubées avec du WST-8 (sel de tétrazolium très soluble dans l'eau) réduit en un produit soluble dans l'eau de couleur orange (formazan) par la succinate déshydrogé-nase (enzyme mitochondriale). Cette transformation est proportionnelle au nombre de cellules vivantes et à leur activité métabolique. La densité optique (DO) des extraits à 450 nm a été enregistrée avec un spectromètre (VERSAmax, Molecular Devices). • Culture et traitement
Des cellules de mélanome B16 ont été ensemencées dans une plaque à 96 puits et incubées dans un milieu de culture pendant 24 heures.
Le milieu a ensuite été remplacé par du milieu de culture, en présence de NDP-MSH à 0,1 µM, contenant ou non : - le solvant témoin (éthanol testé à 0,066 %), • le composé d'essai acide sterculique testé à 50, 100 ou 200 µM, • l'acide kojique de référence testé à 0,5 mM ou 3 mM, • la combinaison du composé testé acide sterculique (50, 100 ou 200 µM) et de l'acide kojique à 0,5 mM.
Les cellules ont été incubées pendant 72 heures. En parallèle, une condition de contrôle non stimulée a été réalisée.
À la fin du temps d'incubation, l'absorbance à 405 nm a été mesurée et la teneur totale en mélanine (extracellulaire et intracellulaire) a été calculée pour chaque échantillon à l'aide d'une courbe standard de mélanine allant de 0,78 à 100 µg/ml.
Les valeurs de fond (interférences potentielles), mesurées dans les puits sans cellules, ont été soustraites aux valeurs calculées afin de considérer l'effet lié à la production de mélanine uniquement.
Les résultats ont été exprimés en pourcentage de mélanine par rapport au contrôle stimulé.

[2] = system: cellules de mélanome murin B16; experiment: Preliminary cytotoxicity test, WST-8 reduction assay; type: cell-based; settings: for % de cellules viables: 72 h incubation, WST-8, individual replicates
Method: Avant cet essai, un essai de cytotoxicité a été réalisé à l'aide d'un essai standard de réduction WST-8, afin de déterminer les concentrations à tester dans cette étude.
as §1
L'erreur standard de la moyenne (sem) est une mesure de la distance probable entre la moyenne de l'échantillon et la moyenne réelle de la population. Elle est calculée en divisant l'écart-type par la racine carrée de la taille de l'échantillon. Pourcentage deviabilité: viabilité(%) = (ODéchantillon/ODcontrôle) × 100 [formula] [formula]

[3] = system: cellules B16; experiment: Total protein quantity (DC Protein Assay) in B16 cells of the melanin test; type: cell-based, murin; settings: 200 µM; concluded from protein content
Method: La quantité de protéines totales contenues dans les cellules et les surnageants de chaque réplicat a été mesurée à l'aide du kit DC Protein Assay contre une gamme de BSA avec un lecteur de microplaques à 750 nm (VERSAmax, Molecular Devices).
Kit : DC Protein Assay de BIO-RAD ref 500-0116.
Limite de détection basse : 0,2 mg/ml Limite de détection haute : 2 mg/ml Pour chaque condition de test, la quantité de mélanine a été normalisée par rapport à la quantité de protéines totales.

Structure (SMILES): O=c1cc(CO)occ1O [acide kojique, reference compound]
- inhibition relative ([1]; 0,5 mM, melanin synthesis in NDP-MSH-stimulated B16 cells): 65%
- inhibition relative ([1]; 3 mM, inhibition of the NDP-MSH effect on melanin synthesis): 89%
- Teneur en mélanine ([1]; KA 0,5 mM, listed as KA): 31,36483% and 49,33155% and 42,04703%
- Teneur en mélanine ([1]; KA 3 mM, listed as KA): 17,4540% and 20,7219% and 19,5020%

Structure (SMILES): CCCCCCCCC1=C(CCCCCCCC(=O)O)C1 [acide sterculique, 8-(2-octyl-cyclopropen-1-yl)-octanoic acid]
- % de cellules viables ([2]; AcSter 12 µM): 112,1381% and 146,2746% and 110,4588%
- % de cellules viables ([2]; AcSter 37 µM): 82,74032% and 102,0043% and 72,79147%
- % de cellules viables ([2]; AcSter 111 µM): 112,2056% and 119,9363% and 106,0771%
- % de cellules viables ([2]; AcSter 333 µM): 26,41552% and 44,06769% and 52,32917%
- % de cellules viables ([2]; AcSter 1000 µM): 1,061339% and 1,910951% and 2,113628%
- % de cellules viables ([2]; AcSter 1,5 µM): 133,9982% and 119,6442% and 122,5711%
- effet sur la viabilité ([2]; up to 111 µM, B16 cells, WST-8 (Fig 1)): n'a pas eu d'effet sur la viabilité
- effet sur la synthèse de mélanine ([1]; 50 µM, NDP-MSH-stimulated B16 cells): n'a eu aucun effet
- inhibition relative ([1]; 100 µM and 200 µM, strong, concentration-dependent inhibition of melanin synthesis): ≤ 93%
- inhibition de la teneur en mélanine ([1]; 100 µM, B16 cells (Fig 2)): inhibition marquée
- efficacy on melanin content compared with acide kojique à 3mM ([1]; 200 µM, B16 cells (Fig 2)): aussi efficace que l'acide kojique à 3mM
- inhibition de la teneur en mélanine ([1]; 200 µM, B16 cells (Fig 2)): inhibition marquée
- Teneur en mélanine ([1]; AS 50 µM, listed as AS): 103,1496% and 125,1337% and 106,9156%
- Teneur en mélanine ([1]; AS 100 µM, listed as AS): 57,21785% and 56,01605% and 61,96404%
- Teneur en mélanine ([1]; AS 200 µM, listed as AS): 13,64829% and 13,90374% and 21,16183%
- viabilité des cellules [3]: n'inhibe pas la viabilité des cellules
